Measured values taken from ChEMBL document CHEMBL4680322, “Mono- and bis-pyrazolophthalazines: Design, synthesis, cytotoxic activity, DNA/HSA binding and molecular docking studies” (Bioorg Med Chem, 2021).
Calls of active or inactive are those of the source. The rule behind the calls is not given here.

Experiments:
[1] = system: MCF7; experiment: Cytotoxicity against human MCF7 cells assessed as reduction in cell viability measured after 24 hrs by MTT assay; format: functional, cell-based; conditions: MCF7, 24 h
[2] = system: HT-29; experiment: Cytotoxicity against human HT-29 cells assessed as reduction in cell viability measured after 24 hrs by MTT assay; format: functional, cell-based; conditions: HT-29, 24 h
[3] = system: HepG2; experiment: Cytotoxicity against human HepG2 cells assessed as reduction in cell viability measured after 24 hrs by MTT assay; format: functional, cell-based; conditions: HepG2, 24 h
[4] = system: A549; experiment: Cytotoxicity against human A549 cells assessed as reduction in cell viability measured after 24 hrs by MTT assay; format: functional, cell-based; conditions: A549, 24 h
[5] = system: Calf thymus DNA; experiment: Binding affinity to calf thymus DNA assessed as DNA-compound complex formation causing decrease in lambda-max shift at 3 to 187 uM and pH 7.4 by UV-Visible spectroscopy; conditions: Bos taurus, dose 3-187 µM
[6] = system: MCF7; experiment: Potency index, ratio of doxorubicin IC50 to test compound IC50 for human MCF7 cells assessed as reduction in cell viability measured after 24 hrs by MTT assay; format: functional
[7] = target: T1, Albumin (Homo sapiens, UniProt P02768); experiment: Binding affinity to human serum albumin assessed as alpha-helix perturbation with reduction in absorption intensity at 214 nm causing blue shift at 2 to 187 uM by UV-Visible spectroscopy; format: ADME, cell-free; conditions: dose 2-187 µM
T1 sequence (P02768 whole entry): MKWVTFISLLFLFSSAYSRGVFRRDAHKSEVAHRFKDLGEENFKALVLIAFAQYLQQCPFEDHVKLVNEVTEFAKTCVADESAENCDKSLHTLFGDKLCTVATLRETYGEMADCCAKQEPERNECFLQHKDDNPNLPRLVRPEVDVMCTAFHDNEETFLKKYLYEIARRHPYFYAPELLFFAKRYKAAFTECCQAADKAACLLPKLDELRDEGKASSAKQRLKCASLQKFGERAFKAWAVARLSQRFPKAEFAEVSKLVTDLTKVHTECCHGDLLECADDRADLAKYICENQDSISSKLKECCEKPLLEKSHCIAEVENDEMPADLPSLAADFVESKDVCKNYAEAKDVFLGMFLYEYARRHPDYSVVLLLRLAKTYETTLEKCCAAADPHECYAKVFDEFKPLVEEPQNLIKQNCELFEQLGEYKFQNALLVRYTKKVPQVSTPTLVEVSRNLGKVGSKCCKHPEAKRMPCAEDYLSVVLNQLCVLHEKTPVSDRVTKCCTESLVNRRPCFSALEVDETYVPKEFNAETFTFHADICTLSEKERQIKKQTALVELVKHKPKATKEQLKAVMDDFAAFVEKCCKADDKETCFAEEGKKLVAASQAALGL

[8] = system: Calf thymus DNA; experiment: Binding affinity to calf thymus DNA assessed as apparent binding constant for DNA-compound complex by B-H plot analysis; conditions: Bos taurus
[9] = target: T1, Albumin; experiment: Binding affinity to human serum albumin assessed as apparent binding constant for protein-compound complex by B-H plot analysis; format: ADME, cell-free
[10] = target: T1, Albumin; experiment: Binding affinity to human serum albumin assessed as microenvironmental changes at 2 to 187 uM by UV-Visible spectroscopy; format: ADME, cell-free; conditions: dose 2-187 µM
[11] = target: T1, Albumin; experiment: Binding affinity to human serum albumin assessed as induction of secondary structural changes by measuring decrease in alpha content at 187 uM by circular dichroism spectroscopy relative to control; format: cell-free; set-up: scale not given: the % may be the effect or the level left
[12] = target: T1, Albumin; experiment: Binding affinity to human serum albumin assessed as change in hydrodynamic radius by dynamic light scattering analysis (reference value: 3.56 nanometer); format: ADME, cell-free
[13] = target: T1, Albumin; experiment: Binding affinity to human serum albumin assessed as zeta potential by measuring surface charge (reference value: -16.15 mV); format: ADME, cell-free
[14] = target: T1, Albumin; experiment: Binding affinity to human serum albumin assessed as compound-protein complex stoichiometry ratio of 1:1 by B-H plot analysis; format: ADME, cell-free
[15] = system: MRC5; experiment: Cytotoxicity against human MRC5 cells assessed as reduction in cell viability; format: cell-based
[16] = system: Calf thymus DNA; experiment: Binding affinity to calf thymus DNA assessed as compound-DNA complex stoichiometry ratio of 1:1 by B-H plot analysis; conditions: Bos taurus
[17] = system: Calf thymus DNA; experiment: Binding affinity to calf thymus DNA assessed as DNA-compound complex formation causing decrease in band intensity at 3 to 187 uM and pH 7.4 by UV-Visible spectroscopy; conditions: Bos taurus, dose 3-187 µM
[18] = system: MCF-10A; experiment: Cytotoxicity against human MCF-10A cells assessed as reduction in cell viability; format: cell-based
[19] = target: T1, Albumin; experiment: Binding affinity to human serum albumin assessed as conformational changes at 2 to 187 uM by UV-Visible spectroscopy; format: ADME, cell-free; conditions: dose 2-187 µM
[20] = system: Calf thymus DNA; experiment: Binding affinity to calf thymus DNA assessed as decrease in positive ellipticity by retaining basic CD spectrum shape at 187 uM by circular dichroism spectroscopy; conditions: Bos taurus
[21] = system: A549; experiment: Potency index, ratio of doxorubicin IC50 to test compound IC50 for human A549 cells assessed as reduction in cell viability measured after 24 hrs by MTT assay; format: functional
[22] = system: Calf thymus DNA; experiment: Binding affinity to calf thymus DNA assessed as zeta potential (reference value: -24.16 mV); format: tissue-based; conditions: Bos taurus

SMILES | IC50 [1] [µM] | IC50 [2] [µM] | IC50 [3] [µM] | IC50 [4] [µM] | other results
N#CC1=C(N)n2c(=O)c3ccccc3c(=O)n2C1c1ccccc1 (centres undefined) | 41.6 | 132 | 81.7 | 39.7 | –
N#CC1=C(N)n2c(=O)c3ccccc3c(=O)n2C1c1ccc(Cl)cc1Cl (centres undefined) | 10.4 | 1.56 | 11.4 | 64 | –
COc1ccc(C2C(C#N)=C(N)n3c(=O)c4ccccc4c(=O)n32)cc1OC (centres undefined) | 5.1 | 36.4 | 73.5 | 24.7 | –
N#CC1=C(N)n2c(=O)c3ccccc3c(=O)n2C1c1ccccc1OCCOc1ccccc1C1C(C#N)=C(N)n2c(=O)c3ccccc3c(=O)n21 (centres undefined) | 0.49 | 3.71 | 11.6 | 1.35 | Activity [5]: Active; Ratio IC50 [6]: 2; Activity [7]: Active; Kapp [8]: 5 10^4/M; Kapp [9]: 3.8 10^4/M; Activity [10]: Active; Activity [11]: 48.08%; Activity [12]: 5.28 nm; Activity [13]: -14.41 mV; Activity [14]: Active; IC50 [15]: 71.2 µM; Activity [16]: Active; Activity [17]: Active; IC50 [18]: 61.2 µM; Activity [19]: Active; Activity [20]: -17.8 mV; Ratio IC50 [21]: 2; Activity [22]: Active
COc1ccccc1C1C(C#N)=C(N)n2c(=O)c3ccccc3c(=O)n21 (centres undefined) | 455 | 79.7 | 697 | 627 | –
N#CC1=C(N)n2c(=O)c3ccccc3c(=O)n2C1c1ccc([N+](=O)[O-])cc1 (centres undefined) | 60.8 | 79.1 | 170 | 212 | –
N#CC1=C(N)n2c(=O)c3ccccc3c(=O)n2C1c1ccccc1OCCCOc1ccccc1C1C(C#N)=C(N)n2c(=O)c3ccccc3c(=O)n21 (centres undefined) | 35.2 | 44.6 | 104 | 104 | –
N#CC1=C(N)n2c(=O)c3ccccc3c(=O)n2C1c1ccc(O)c([N+](=O)[O-])c1 (centres undefined) | 77.4 | 124 | 19.5 | 47.5 | –
N#CC1=C(N)n2c(=O)c3ccccc3c(=O)n2C1c1ccc(OCCCCOc2ccc(C3C(C#N)=C(N)n4c(=O)c5ccccc5c(=O)n43)cc2)cc1 (centres undefined) | 155 | 419 | 426 | 264 | –
N#CC1=C(N)n2c(=O)c3ccccc3c(=O)n2C1c1ccc(OCCCOc2ccc(C3C(C#N)=C(N)n4c(=O)c5ccccc5c(=O)n43)cc2)cc1 (centres undefined) | 0.66 | 3.1 | 36.2 | 2.47 | –
N#CC1=C(N)n2c(=O)c3ccccc3c(=O)n2C1c1ccccc1OCCCCOc1ccccc1C1C(C#N)=C(N)n2c(=O)c3ccccc3c(=O)n21 (centres undefined) | 44.6 | 82.4 | 244 | 111 | –
N#CC1=C(N)n2c(=O)c3ccccc3c(=O)n2C1c1ccc(OCCOc2ccc(C3C(C#N)=C(N)n4c(=O)c5ccccc5c(=O)n43)cc2)cc1 (centres undefined) | 91.3 | 268 | 249 | 183 | –
N#CC1=C(N)n2c(=O)c3ccccc3c(=O)n2C1c1cccc(C2C(C#N)=C(N)n3c(=O)c4ccccc4c(=O)n32)c1 (centres undefined) | 8.66 | 186 | 50.8 | 18.2 | –
N#CC1=C(N)n2c(=O)c3ccccc3c(=O)n2C1c1cccc(Cl)c1 (centres undefined) | 7.84 | 69.3 | 28.2 | 11.6 | –
N#CC1=C(N)n2c(=O)c3ccccc3c(=O)n2C1c1ccc(Br)cc1 (centres undefined) | 5.97 | 31 | 40.5 | 81.6 | –
COc1cccc2c1C(=O)c1c(O)c3c(c(O)c1C2=O)C[C@@](O)(C(=O)CO)C[C@@H]3O[C@H]1C[C@H](N)[C@H](O)[C@H](C)O1 [DOXORUBICIN] | 1.77 | 1.13 | 2.32 | 2.31 | IC50 [15]: 3.88 µM; IC50 [18]: 3.52 µM
COc1cccc(C2C(C#N)=C(N)n3c(=O)c4ccccc4c(=O)n32)c1 (centres undefined) | 23.2 | 107 | 178 | 38.3 | –
N#CC1=C(N)n2c(=O)c3ccccc3c(=O)n2C1c1ccc(Cl)cc1 (centres undefined) | 5.53 | 25.4 | 16.8 | 40.6 | –
N#CC1=C(N)n2c(=O)c3ccccc3c(=O)n2C1c1ccc(C2C(C#N)=C(N)n3c(=O)c4ccccc4c(=O)n32)cc1 (centres undefined) | 11.4 | 90.9 | 84.6 | 17.6 | –
COc1ccc(C2C(C#N)=C(N)n3c(=O)c4ccccc4c(=O)n32)cc1 (centres undefined) | 23.9 | 66.5 | 93.8 | 39.8 | –
N#CC1=C(N)n2c(=O)c3ccccc3c(=O)n2C1c1ccccc1Cl (centres undefined) | 7.32 | 7.14 | 27.9 | 1.25 | Activity [5]: Active; Activity [7]: Active; Kapp [8]: 4.2 10^4/M; Kapp [9]: 5.2 10^3/M; Activity [10]: Active; Activity [11]: 47.71%; Activity [12]: 5.13 nm; Activity [13]: -13.25 mV; Activity [14]: Active; IC50 [15]: 388 µM; Activity [16]: Active; Activity [17]: Active; IC50 [18]: 213 µM; Activity [19]: Active; Activity [20]: -18.1 mV; Activity [22]: Active
N#CC1=C(N)n2c(=O)c3ccccc3c(=O)n2C1c1cccc([N+](=O)[O-])c1 (centres undefined) | 39.9 | 41.1 | 12.6 | 18.3 | –
